In patent publication US9725462B2, “Pyridopyrimidine derivatives as protein kinase inhibitors” (Merck Patent GmbH, priority 2012, dated 2017):
Where a name gives a salt, the structure may show the parent alone.

Target: T1, SYK (Homo sapiens, UniProt P43405)
T1 construct: 2.5 nM SYK, 400 nM Biotin-Aha-Aha-KEDPDYEWPSAKK
Assay: SYK Flash Plate Assay (enzyme assay)
Type: biochemical
Conditions: Syk inhibition
Description: The following abbreviations refer respectively to the definitions below: • aq (aqueous), h (hour), g (gram), L (liter), mg (milligram), MHz (Megahertz), min. (minute), mm (millimeter), mmol (millimole), mM (millimolar), m.p. (melting point), eq (equivalent), mL (milliliter), L (microliter), ACN (acetonitrile), AcOH (acetic acid), CDCl3 (deuterated chloroform), CD3OD (deuterated methanol), CH3CN (acetonitrile), c-hex (cyclohexane), DCC (dicyclohexyl carbodiimide), DCM (dichloromethane), DIC (diisopropyl carbodiimide), DIEA (diisopropylethyl-amine), DMF (dimethylformamide), DMSO (dimethylsulfoxide), DMSO-d6 (deuterated dimethylsulfoxide), EDC (1-(3-dimethyl-amino-propyl)-3-ethylcarbodiimide), ESI (Electro-spray ionization), EtOAc (ethyl acetate), Et2O (diethyl ether), EtOH (ethanol), HATU (dimethylamino-([1,2,3]triazolo[4,5-b]pyridin-3-yloxy)-methylene]-dimethyl-ammonium hexafluorophosphate), HPLC (High Performance Liquid Chromatography), i-PrOH (2-propanol), K2CO3 (potassium carbonate), LC (Liquid Chromatography), MeOH (methanol), MgSO4 (magnesium sulfate), MS (mass spectrometry), MTBE (Methyl tert-butyl ether), NaHCO3 (sodium bicarbonate), NaBH4 (sodium borohydride), NMM (N-methyl morpholine), NMR (Nuclear Magnetic Resonance), PyBOP (benzotriazole-1-yl-oxy-tris-pyrrolidino-phosphonium hexafluorophosphate), RT (room temperature), Rt (retention time), SPE (solid phase extraction), TBTU (2-(1-H-benzotriazole-1-yl)-1,1,3,3-tetramethyluromium tetrafluoro borate), TEA (triethylamine), TFA (trifluoroacetic acid), THF (tetrahydrofuran), TLC (Thin Layer Chromatography), UV (Ultraviolet). Description of the In Vitro Assays SYK Flash Plate Assay
The kinase assay is performed either as 384-well Flashplate assay (for e.g. Topcount measurement) or as 384-well Image-Flashplate assay (for LEADseeker measurement).
2.5 nM SYK, 400 nM Biotin-Aha-Aha-KEDPDYEWPSAKK
and 10 μM ATP (spiked with 0.3 μCi 33P-ATP/well) are incubated in a total volume of 50 μl (60 mM Hepes, 10 mM MgCl2, 1.2 mM Dithiothreitol, 0.02% Brij35, 0.1% BSA, pH 7.5) with or without test compound for 1 hours at 30° C. The reaction is stopped with 25 μl 200 mM EDTA. After 30 Min at 30° C. the liquid is removed and each well washed thrice with 100 μl 0.9% sodium chloride solution. Non-specific reaction is determined in presence of 0.1 μM Staurosporine. Radioactivity is measured with Topcount (when using Flashplates) or with LEADseeker (when using Image-Flashplates) respectively. Results (e.g. IC50-values) are calculated with program tools provided by the IT-department (e.g. Symyx Assay Explorer, Genedata Screener). In Vivo Assays CIA

Compound	IC50 [nM]
N[C@@H]1CCCC[C@@H]1Nc1ncc2cncc(-c3c[nH]c4cc(C(F)(F)F)ccc34)c2n1 (stereo in doubt) [Compound A41, (1S,2R)-N-[8-(6-Trifluoromethyl-1H-indol-3-yl)-pyrido[4,3-d]pyrimidin-2-yl]-cyclohexane-1,2-diamine]	< 100
N[C@@H]1CCCC[C@@H]1Nc1ncc2cncc(-c3cc4ccc(F)cc4[nH]3)c2n1 (stereo in doubt) [Compound A42, (1S,2R)-N-[8-(6-Fluoro-1H-indol-2-yl)-pyrido[4,3-d]pyrimidin-2-yl]-cyclohexane-1,2-diamine]	1000 to 50000
N[C@@H]1CCCC[C@@H]1Nc1ncc2cncc(-c3cc4n(n3)CCOC4)c2n1 (stereo in doubt) [Compound A43, (1S,2R)-N-[8-(6,7-Dihydro-4H-pyrazolo[5,1-c][1,4]oxazin-2-yl)-pyrido[4,3-d]pyrimidin-2-yl]-cyclohexane-1,2-diamine]	1000 to 50000
N[C@@H]1CCCC[C@@H]1Nc1ncc2cncc(-c3c[nH]c4ccc(F)cc34)c2n1 (stereo in doubt) [Compound A46, (1S,2R)-N-[8-(5-Fluoro-1H-indol-3-yl)-pyrido[4,3-d]pyrimidin-2-yl]-cyclohexane-1,2-diamine]	< 100
Cc1cccc2[nH]c(-c3cncc4cnc(N[C@H]5CCCC[C@H]5N)nc34)cc12 (stereo in doubt) [Compound A66, (1S,2R)-N-[8-(4-Methyl-1H-indol-2-yl)-pyrido[4,3-d]pyrimidin-2-yl]-cyclohexane-1,2-diamine]	1000 to 50000
Cn1cc(-c2cncc3cnc(N[C@@H]4CCCC[C@@H]4N)nc23)cn1 [Compound A2, (1R,2S)—N-[8-(1-Methyl-1H-pyrazol-4-yl)-pyrido[4,3-d]pyrimidin-2-yl]-cyclohexane-1,2-diamine hydrochloride]	100 to 1000
Cn1cc(-c2cnc(N)c3cnc(N4CCC(CO)CC4)nc23)cn1 [Compound A5, {1-[5-Amino-8-(1-methyl-1H-pyrazol-4-yl)-pyrido[4,3-d]pyrimidin-2-yl]-piperidin-4-yl}-methanol]	1000 to 50000
Cn1cc(-c2cnc(N)c3cnc(NCCN)nc23)cn1 [Compound A6, N2-(2-Amino-ethyl)-8-(1-methyl-1H-pyrazol-4-yl)-pyrido[4,3-d]-pyrimidine-2,5-diamine]	1000 to 50000
Nc1ncc(-c2ccccc2)c2nc(N[C@@H]3CCCC[C@@H]3N)ncc12 [Compound A17, N2-((1R,2S)-2-Amino-cyclohexyl)-8-phenyl-pyrido[4,3-d]-pyrimidine-2,5-diamine]	100 to 1000
COC[C@H](N)CNc1ncc2c(N)ncc(-c3cnn(C)c3)c2n1 [Compound A20, N2-((R)-2-Amino-3-methoxy-propyl)-8-(1-methyl-1H-pyrazol-4-yl)-pyrido[4,3-d]pyrimidine-2,5-diamine]	100 to 1000
CC(C)n1cc(-c2cncc3cnc(N[C@@H]4CCCC[C@@H]4N)nc23)cn1 [Compound A26, (1S,2R)-[8-(1-Isopropyl-1H-pyrazol-4-yl)-pyrido[4,3-d]pyrimidin-2-yl]-cyclohexane-1,2-diamine]	1000 to 50000
CC1(C)CCOc2cc(-c3cncc4cnc(N[C@@H]5CCCC[C@@H]5N)nc34)ccc21 [Compound A29]	1000 to 50000
COC[C@H](N)CNc1ncc2cncc(-c3cccc(C)c3)c2n1 [Compound A30, (R)-3-Methoxy-N1-(8-m-tolyl-pyrido[4,3-d]pyrimidin-2-yl)-propane-1,2-diamine]	1000 to 50000
Cc1cccc(-c2cncc3cnc(N[C@H](CC(C)C)C(N)=O)nc23)c1 [Compound A32, (R)-4-Methyl-2-(8-m-tolyl-pyrido[4,3-d]pyrimidin-2-ylamino)-pentanoic acid amide]	1000 to 50000
N[C@H]1CCCC[C@H]1Nc1ncc2cncc(-c3ccc4[nH]cnc4c3)c2n1 [Compound A36]	1000 to 50000
N[C@H]1CCCC[C@H]1Nc1ncc2cncc(-c3ccc4[nH]c(=O)[nH]c4c3)c2n1 [Compound A37, 5-[2-((1R,2S)-2-Amino-cyclohexylamino)-pyrido[4,3-d]pyrimidin-8-yl]-1,3-dihydro-benzimidazol-2-one]	1000 to 50000

Compound	IC50 [nM]
N#Cc1ccc2[nH]cc(-c3cncc4cnc(N[C@@H]5CCCC[C@@H]5N)nc34)c2c1 [Compound A44, 3-[2-((1 R,2S)-2-Amino-cyclohexylamino)-pyrido[4,3-d]pyrimidin-8-yl]-1H-indole-5-carbonitrile]	100 to 1000
N#Cc1ccc2c(-c3cncc4cnc(N[C@@H]5CCCC[C@@H]5N)nc34)c[nH]c2c1 [Compound A45, 3-[2-((1R,2S)-2-Amino-cyclohexylamino)-pyrido[4,3-d]pyrimidin-8-yl]-1H-indole-6-carbonitrile]	< 100
NC1CCOCC1Nc1ncc2cncc(-c3c[nH]c4cc(C(F)(F)F)ccc34)c2n1 (stereo not drawn) [Compound A49, cis-N3-[8-[6-(trifluoromethyl)-1H-indol-3-yl]pyrido[4,3-d]pyrimidin-2-yl]tetrahydropyran-3,4-diamine]	< 100
COC[C@H](N)CNc1ncc2cncc(-c3c[nH]c4cc(C(F)(F)F)ccc34)c2n1 [Compound A61, (2R)-3-Methoxy-N1-[8-[6-(trifluoromethyl)-1H-indol-3-yl]pyrido[4,3-d]pyrimidin-2-yl]propane-1,2-diamine]	1000 to 50000
CC(C)C[C@@H](Nc1ncc2cncc(-c3c[nH]c4cc(C(F)(F)F)ccc34)c2n1)C(N)=O [Compound A62, (2R)-4-Methyl-2-[[8-[6-(trifluoromethyl)-1H-indol-3-yl]pyrido[4,3-d]-pyrimidin-2-yl]amino]pentanamide]	< 100
NC1CCCCC1Nc1ncc2cncc(-c3c[nH]c4c(F)cccc34)c2n1 (stereo not drawn) [Compound A63, cis-N2-[8-(7-Fluoro-1H-indol-3-yl)pyrido[4,3-d]pyrimidin-2-yl]cyclohexane-1,2-diamine]	< 100
CC(C)C[C@@H](Nc1ncc2cncc(-c3c[nH]c4cc(C#N)ccc34)c2n1)C(N)=O [Compound A65, (R)-2-[8-(6-Cyano-1H-indol-3-yl)-pyrido[4,3-d]pyrimidin-2-yl-amino]-4-methyl-pentanoic acid amide]	< 100
COC[C@H](N)CNc1ncc2cncc(-c3c[nH]c4cc(C#N)ccc34)c2n1 [Compound A67, 3-[2-((R)-2-Amino-3-methoxy-propylamino)-pyrido[4,3-d]pyrimidin-8-yl]-1H-indole-6-carbonitrile]	1000 to 50000
N[C@H]1COCC[C@H]1Nc1ncc2cncc(-c3c[nH]c4ccccc34)c2n1 [Compound A68, (3R,4R)-N4-[8-(1H-Indol-3-yl)-pyrido[4,3-d]pyrimidin-2-yl]-tetrahydro-pyran-3,4-diamine]	< 100
N#Cc1ccc2c(-c3cncc4cnc(N[C@@H]5CCOC[C@@H]5N)nc34)c[nH]c2c1 [Compound A69, 3[2-((3R,4R)-3-Amino-tetrahydro-pyran-4-ylamino)-pyrido[4,3-d]pyrimidin-8-yl]-1H-indole-6-carbonitrile]	100 to 1000
N#Cc1cccc2c(-c3cncc4cnc(N[C@@H]5CCCC[C@@H]5N)nc34)c[nH]c12 [Compound A72, 3-[2-((1R,2S)-2-amino-cyclohexylamino)-pyrido[4,3-d]pyrimidin-8-yl]-1H-indole-7-carbonitrile]	< 100
N[C@H]1CCCC[C@H]1Nc1ncc2cncc(-c3c[nH]c4cnccc34)c2n1 [Compound A76]	< 100
NC(=O)c1ccc2c(-c3cncc4cnc(N[C@@H]5CCCC[C@@H]5N)nc34)c[nH]c2c1 [Compound A77, 3-[2-((1R,2S)-2-amino-cyclohexylamino)-pyrido[4,3-d]pyrimidin-8-yl]-1H-indole-6-carboxylic acid amide]	< 100
N#Cc1ccc2c(-c3cncc4cnc(NC5CCCCC5)nc34)c[nH]c2c1 [Compound A80, 3-(2-cyclohexylamino-pyrido[4,3-d]pyrimidin-8-yl)-1H-indole-6-carbonitrile]	1000 to 50000
N[C@H]1CCCC[C@H]1Nc1ncc2cncc(-c3cc4cccc(F)c4[nH]3)c2n1 [Compound A81]	100 to 1000
N[C@H]1CCCC[C@H]1Nc1ncc2c(C(F)F)ncc(-c3c[nH]c4cc(C(F)(F)F)ccc34)c2n1 [Compound A82]	< 100
